In patent US20080145409A1, “COMPOSITION FOR THE TREATMENT AND PREVENTION OF PEPTIC ULCER” (priority 2006, published 2008):
Structures can show the parent of a compound that is named as a salt.

Assays:
[1] = system: gastric injury induced by ethanol; experiment: Gastric ulcers induced by absolute ethanol in rats; format: in vivo, Sprague-Dawley derived male rats; details: for Average (gastric ulceration score 0-4): 30 min before absolute ethanol 1 ml/rat, scored 1 h later, 5 rats
Excerpt: The purpose of this study was to investigate the effect of MIC31 (Citronellol) and its analogues/derivatives on gastric injury induced by ethanol in the rat. Gastric damage was produced by oral administration of absolute ethanol to rats. The severity of the ethanol-induced gastric damage varied considerably within the vehicle-treated group of rats which served as the negative controls.
Animals studied in this example were Sprague-Dawley derived Male Rats from Yung-Min Medical University Laboratory Animal Center. The age of these rats are 7 weeks old. Each group has 5 rats, and their body weight at arrival was 180±10 gm. Upon arrival, heath status of rats will undergo a minimum of one week acclimation period prior to the start of the experiment. At the first day of study, body weights are measured and the animals are grouped according to experiment design. The environmental conditions are listed below:
(10 ml/kg) to a group of 5 Sprague-Dawley derived male rats overnight fasted weighing 180±10 gm at 30 minutes before absolute ethanol challenge (1 ml/rat, P.O.). One hour later, the animals are sacrificed and the stomachs are opened along the greater curvature. Gastric ulceration is scored for degree of hemorrhage and severity of ulcerative lesions as follows: 0=no hyperemia or lesion […], 1=hyperemia, 2=one or two slight lesions, 3=more than two slight lesions, 4=more than two lesions or severe lesions. Reduction of concurrent control score values by 50 percent or more (≧50%) is considered significant. During the experimental phase, body weight will be documented.

[2] = system: Helicobacter pylori-induced ulcers; experiment: Helicobacter pylori-induced gastric ulceration in mice; format: in vivo, male CD-1 (Crl.) derived mice; details: for Ulceration Score Total: N=5 mice, day 8
Procedure: MIC-31 (Citronellol) and MIC-32 (Geraniol) were evaluated for their abilities to protect mice from the Helicobacter pylori-induced ulcers. MIC-31 was dosed at 50, 25, 12.5 and 6.25 mg/kg, P.O., as well as at 25 and 12.5 mg/kg, I.P. MIC-32 was dosed at 25 and 12.5 mg/kg, P.O. These dosing regimes were administered twice daily for 7 consecutive days beginning with the first dose given at one hour after Helicobacter pylori inoculation. On day 8, Gastric ulceration was scored as 0, 1, 2 or 3 (3 being most severe relative to vehicle control) according to the degree of hemorrhage and severity of lesions on the gastric mucosa. MIC-31 and MIC-32 were dissolved in 2% Tween 80 for oral (P.O.) and in 2% Tween 80/0.9% NaCl for intraperitoneal (I.P.) administration. MIC-31 at doses of 50, 25, 12.5, 6.25 mg/kg (P.O.) and 25, 12.5 mg/kg (I.P.), as well as MIC-32 at 25 and 12.5 mg/kg (P.O.), were administered to test animals twice daily for 7 consecutive days. The dosing volume was 10 ml/kg. Male CD-1 (Crl.) derived mice weighing 24±2 g were provided. Space allocation for 10 animals was 29×18×13 cm. Mice were housed in cages and maintained in a controlled temperature (22° C.-23° C.) and humidity (70%-80%) environment with 12 hours light dark cycles for at least one week prior to use. Free access to standard lab chow for mice and tap water was granted. Groups of 5 male CD-1 (Crl.) derived mice weighing 24±2 g, were fasted for 18 hours prior to intragastric inoculation of Helicobacter pylori in suspension at 9.5×10^9 CFU/0.4 ml/mouse. […] MIC-31 was also dosed intraperitoneally at 25 mg/kg and 12.5 mg/kg, starting also one hour after the Helicobacter pylori inoculation, twice daily for 7 consecutive days. Omeprazole 1 mg/kg and Clarithromycin 10 mg/kg, in combination, were used as positive controls and administered orally to test animals once daily for 7 consecutive days under the same treatment regime. Eight days after infection, all animals were fasted overnight and sacrificed. Each stomach was dissected along the greater curvature. Gastric ulceration was scored at four levels according to the degree of hemorrhage and severity of ulcerative lesions: 0=normal appearance, 1=mild red spots, 2=moderate red spots and/or hemorrhage spots, 3=marked hemorrhage spots. Reduction of ulceration score by 50 percent or more (≧50%) relative to vehicle control score values is considered significant. In addition, blood of each animal was collected from the retro-orbital sinus on day 8 and plasma sample was kept frozen at −80° C. until returned to the sponsor. Tissues of stomach and intestines were removed by surgical excision and immersed in 10% Neutral-Buffer formalin for histopathological examination.

[3] = 30 mg/kg P.O., 30 min before absolute ethanol, >=50% considered significant
[4] = 100 mg/kg P.O., 30 min before absolute ethanol, >=50% considered significant
[5] = 300 mg/kg P.O., 30 min before absolute ethanol, >=50% considered significant
[6] = PO 12.5 mg/kg x 2 x 7 days, score 0-3 each
[7] = PO 25 mg/kg x 2 x 7 days, score 0-3 each
[8] = Rattus norvegicus, po, 1 h, 30 mg/kg P.O., 30 min before absolute ethanol, >=50% considered significant, read-out: Reduction (%) of ulceration score vs concurrent vehicle control
[9] = Rattus norvegicus, po, 1 h, 100 mg/kg P.O., 30 min before absolute ethanol, >=50% considered significant, read-out: Reduction (%) of ulceration score vs concurrent vehicle control
[10] = Rattus norvegicus, po, 1 h, 300 mg/kg P.O., 30 min before absolute ethanol, >=50% considered significant, read-out: Reduction (%) of ulceration score vs concurrent vehicle control

CC(C)=CCCC(C)CCOC(=O)C(C)C (stereo not shown) [MIC-38, Citronellyl isobutryrate]
Average (gastric ulceration score 0-4) ([1]; 30 mg/kg P.O.): 3.2 | Reduction (%) of ulceration score vs concurrent vehicle control [1, 3]: 0% | Average (gastric ulceration score 0-4) ([1]; 100 mg/kg P.O.): 1.8 | Reduction (%) of ulceration score vs concurrent vehicle control [1, 4]: 40% | Average (gastric ulceration score 0-4) ([1]; 300 mg/kg P.O.): 1.2 | Reduction (%) of ulceration score vs concurrent vehicle control [1, 5]: 60%

CC(C)=CCCC(C)CCO (stereo not shown) [MIC-42, Citronellol]
Average (gastric ulceration score 0-4) ([1]; 30 mg/kg P.O.): 1.6 | Reduction (%) of ulceration score vs concurrent vehicle control [1, 3]: 53% | Average (gastric ulceration score 0-4) ([1]; 100 mg/kg P.O.): 0.8 | Reduction (%) of ulceration score vs concurrent vehicle control [1, 4]: 76% | Average (gastric ulceration score 0-4) ([1]; 300 mg/kg P.O.): 1.6 | Reduction (%) of ulceration score vs concurrent vehicle control [1, 5]: 53%

CC(C)=CCC/C(C)=C/CO [MIC-32, Geraniol]
Ulceration Score Total [2, 6]: 13 | % Inhibition of ulceration score vs vehicle ([2]; PO 12.5 mg/kg x 2 x 7 days, >=50% significant (in parentheses)): 13% | Ulceration Score Total [2, 7]: 11 | % Inhibition of ulceration score vs vehicle ([2]; PO 25 mg/kg x 2 x 7 days, >=50% significant (in parentheses)): 27%

CC(C)=CCCC(C)CCO (stereo not shown) [MIC-31, Citronellol]
Ulceration Score Total ([2]; IP 12.5 mg/kg x 2 x 7 days): 2 | Ulceration Score Total ([2]; IP 25 mg/kg x 2 x 7 days): 8 | % Inhibition of ulceration score vs vehicle ([2]; IP 25 mg/kg x 2 x 7 days, >=50% significant): 47% | Ulceration Score Total ([2]; PO 6.25 mg/kg x 2 x 7 days, score 0-3 each): 11 | % Inhibition of ulceration score vs vehicle ([2]; PO 6.25 mg/kg x 2 x 7 days, >=50% significant (in parentheses)): 27% | Ulceration Score Total [2, 6]: 7 | Ulceration Score Total [2, 7]: 3 | Ulceration Score Total ([2]; PO 50 mg/kg x 2 x 7 days, score 0-3 each): 2 | Average (gastric ulceration score 0-4) ([1]; 30 mg/kg P.O.): 1 | Reduction (%) of ulceration score vs concurrent vehicle control [1, 3]: 72% | Average (gastric ulceration score 0-4) ([1]; 100 mg/kg P.O.): 0.4 | Reduction (%) of ulceration score vs concurrent vehicle control [1, 4]: 89% | Protecting effect on stomach after challenge with absolute ethanol (in words) ([1]; single oral dose 30 min before alcohol challenge, rats): can inhibit the severity degree of hemorrhage and ulcerative lesions in stomach

CC(=O)OCCC(C)CCC=C(C)C (stereo not shown) [MIC-39, Citronellyl acetate]
Average (gastric ulceration score 0-4) ([1]; 30 mg/kg P.O.): 2.4 | Average (gastric ulceration score 0-4) ([1]; 100 mg/kg P.O.): 0.8 | Average (gastric ulceration score 0-4) ([1]; 300 mg/kg P.O.): 0.8 | inhibition in vivo at 30 mg/kg [1, 8]: 20% | inhibition in vivo at 100 mg/kg [1, 9]: 73% | inhibition in vivo at 300 mg/kg [1, 10]: 73%

CC(C)=CCCC(C)CCO (stereo not drawn) [MIC-45, (−)-β-Citronellol]
Average (gastric ulceration score 0-4) ([1]; 30 mg/kg P.O.): 2.6 | Reduction (%) of ulceration score vs concurrent vehicle control [1, 3]: 28% | Average (gastric ulceration score 0-4) ([1]; 100 mg/kg P.O.): 1.2 | Reduction (%) of ulceration score vs concurrent vehicle control [1, 4]: 67% | Average (gastric ulceration score 0-4) ([1]; 300 mg/kg P.O.): 1.6 | Reduction (%) of ulceration score vs concurrent vehicle control [1, 5]: 83%

CC(C)=CCCC(C)CCOC=O (stereo not shown) [MIC-41, Citronellyl formate]
Average (gastric ulceration score 0-4) ([1]; 30 mg/kg P.O.): 3.2 | Average (gastric ulceration score 0-4) ([1]; 100 mg/kg P.O.): 1 | Average (gastric ulceration score 0-4) ([1]; 300 mg/kg P.O.): 1.4 | inhibition in vivo at 30 mg/kg [1, 8]: 0% | inhibition in vivo at 100 mg/kg [1, 9]: 69% | inhibition in vivo at 300 mg/kg [1, 10]: 56%

CC(C)=CCC[C@H](C)CCBr [MIC-36, (s)-(+)-Citronellyl bromide]
Average (gastric ulceration score 0-4) ([1]; 30 mg/kg P.O.): 2 | Average (gastric ulceration score 0-4) ([1]; 100 mg/kg P.O.): 1.4 | Average (gastric ulceration score 0-4) ([1]; 300 mg/kg P.O.): 1.6 | inhibition in vivo at 30 mg/kg [1, 8]: 33% | inhibition in vivo at 100 mg/kg [1, 9]: 53% | inhibition in vivo at 300 mg/kg [1, 10]: 47%

CC(C)=CCC[C@@H](C)CCBr [MIC-43, (R)-(−)-Citronellyl bromide]
Average (gastric ulceration score 0-4) ([1]; 30 mg/kg P.O.): 2.4 | Average (gastric ulceration score 0-4) ([1]; 100 mg/kg P.O.): 1.6 | Average (gastric ulceration score 0-4) ([1]; 300 mg/kg P.O.): 1.6 | inhibition in vivo at 30 mg/kg [1, 8]: 29% | inhibition in vivo at 100 mg/kg [1, 9]: 53% | inhibition in vivo at 300 mg/kg [1, 10]: 53%

COc1ccc2[nH]c([S+]([O-])Cc3ncc(C)c(OC)c3C)nc2c1 (stereo not shown) [Omeprazole, reference compound]
Average (gastric ulceration score 0-4) ([1]; 50 mg/kg P.O.): 2.2 | inhibition in vivo at 50 mg/kg ([1]; Rattus norvegicus, po, 1 h, 50 mg/kg P.O., 30 min before absolute ethanol, >=50% considered significant, read-out: Reduction (%) of ulceration score vs concurrent vehicle control): 39%

C/C=C(\C)C(=O)OCCC(C)CCC=C(C)C (stereo not shown) [MIC-44, Citronellyl tiglate]
Average (gastric ulceration score 0-4) ([1]; 30 mg/kg P.O.): 2.8 | Average (gastric ulceration score 0-4) ([1]; 100 mg/kg P.O.): 1.8 | Average (gastric ulceration score 0-4) ([1]; 300 mg/kg P.O.): 2.2 | inhibition in vivo at 30 mg/kg [1, 8]: 22% | inhibition in vivo at 100 mg/kg [1, 9]: 50% | inhibition in vivo at 300 mg/kg [1, 10]: 39%

CC(C)=CCCC(C)CC(=O)O (stereo not shown) [MIC-35, Citronellic acid]
Average (gastric ulceration score 0-4) ([1]; 30 mg/kg P.O.): 2 | Average (gastric ulceration score 0-4) ([1]; 100 mg/kg P.O.): 1.6, | Average (gastric ulceration score 0-4) ([1]; 300 mg/kg P.O.): 1.4 | inhibition in vivo at 30 mg/kg [1, 8]: 38% | inhibition in vivo at 100 mg/kg [1, 9]: 50% | inhibition in vivo at 300 mg/kg [1, 10]: 56%

CCC(=O)OCCC(C)CCC=C(C)C (stereo not shown) [MIC-40, Citronellyl propionate]
Average (gastric ulceration score 0-4) ([1]; 30 mg/kg P.O.): 3.4 | Average (gastric ulceration score 0-4) ([1]; 100 mg/kg P.O.): 2.8 | Average (gastric ulceration score 0-4) ([1]; 300 mg/kg P.O.): 1.2 | inhibition in vivo at 30 mg/kg [1, 8]: 6% | inhibition in vivo at 100 mg/kg [1, 9]: 22% | inhibition in vivo at 300 mg/kg [1, 10]: 67%
